Assay results: the NIST ThermoML archive (doi:10.1021/acs.jced.7b00201)
± gives the expanded uncertainty stated by the source.

Columns and labels:
[1] = 100 kPa, Liquid; for viscosity: Falling or rolling sphere viscometry; for mass density: Vibrating tube method
[2] = xn = mol fraction of the nth substance listed; conditions: 100 kPa, Liquid; for viscosity: Falling or rolling sphere viscometry; for mass density: Vibrating tube method

CCCCC1CCCCC1 [butylcyclohexane]
[1]
Conditions	mass density [kg/m3]	viscosity [mPa·s]
293.15 K	799.34 ± 1	1.305 ± 0.028
298.15 K	795.59 ± 1	1.202 ± 0.026
303.15 K	791.84 ± 1	1.112 ± 0.024
308.15 K	788.07 ± 1	1.033 ± 0.022
313.15 K	784.3 ± 1	0.963 ± 0.021
318.15 K	780.52 ± 1	0.901 ± 0.019
323.15 K	776.74 ± 1	0.844 ± 0.018
328.15 K	772.93 ± 1	0.794 ± 0.017
333.15 K	769.13 ± 1	0.749 ± 0.016
338.15 K	765.3 ± 1	0.708 ± 0.015
343.15 K	761.47 ± 1	0.67 ± 0.014

CCCCC1CCCCC1 [butylcyclohexane] + OCC1CC1
[2], x2 = 0
Conditions	mass density [kg/m3]	viscosity [mPa·s]
293.15 K	799.34 ± 1	1.305 ± 0.028
298.15 K	795.59 ± 1	1.202 ± 0.026
303.15 K	791.84 ± 1	1.112 ± 0.024
308.15 K	788.07 ± 1	1.033 ± 0.022
313.15 K	784.3 ± 1	0.963 ± 0.021
318.15 K	780.52 ± 1	0.901 ± 0.019
323.15 K	776.74 ± 1	0.844 ± 0.018
328.15 K	772.93 ± 1	0.794 ± 0.017
333.15 K	769.13 ± 1	0.749 ± 0.016
338.15 K	765.3 ± 1	0.708 ± 0.015
343.15 K	761.47 ± 1	0.67 ± 0.014

OCC1CC1 [cyclopropylmethanol]
[1]
Conditions	mass density [kg/m3]	viscosity [mPa·s]
293.15 K	912.99 ± 1	4.029 ± 0.086
298.15 K	908.94 ± 1	3.485 ± 0.075
303.15 K	904.85 ± 1	3.037 ± 0.065
308.15 K	900.74 ± 1	2.661 ± 0.057
313.15 K	896.58 ± 1	2.344 ± 0.05
318.15 K	892.38 ± 1	2.074 ± 0.044
323.15 K	888.13 ± 1	1.843 ± 0.04
328.15 K	883.84 ± 1	1.646 ± 0.035
333.15 K	879.49 ± 1	1.476 ± 0.032
338.15 K	875.07 ± 1	1.328 ± 0.028
343.15 K	870.62 ± 1	1.201 ± 0.026

CCCCCCCCCCCC [dodecane]
[1]
Conditions	mass density [kg/m3]	viscosity [mPa·s]
293.15 K	748.83 ± 1	1.481 ± 0.031
298.15 K	745.23 ± 1	1.355 ± 0.029
303.15 K	741.6 ± 1	1.244 ± 0.026
308.15 K	737.97 ± 1	1.151 ± 0.024
313.15 K	734.33 ± 1	1.066 ± 0.023
318.15 K	730.68 ± 1	0.992 ± 0.021
323.15 K	727.01 ± 1	0.926 ± 0.02
328.15 K	723.35 ± 1	0.867 ± 0.018
333.15 K	719.67 ± 1	0.814 ± 0.017
338.15 K	715.98 ± 1	0.765 ± 0.016
343.15 K	712.28 ± 1	0.724 ± 0.015

CCCCCCCCCCCC [dodecane] + CCCCC1CCCCC1
[2], x1 = 1
Conditions	mass density [kg/m3]	viscosity [mPa·s]
293.15 K	748.83 ± 1	1.481 ± 0.031
298.15 K	745.23 ± 1	1.355 ± 0.029
303.15 K	741.6 ± 1	1.244 ± 0.026
308.15 K	737.97 ± 1	1.151 ± 0.024
313.15 K	734.33 ± 1	1.066 ± 0.023
318.15 K	730.68 ± 1	0.992 ± 0.021
323.15 K	727.01 ± 1	0.926 ± 0.02
328.15 K	723.35 ± 1	0.867 ± 0.018
333.15 K	719.67 ± 1	0.814 ± 0.017
338.15 K	715.98 ± 1	0.765 ± 0.016
343.15 K	712.28 ± 1	0.724 ± 0.015

CCCCCCCCCCCC [dodecane] + OCC1CC1
[2], x2 = 0
Conditions	mass density [kg/m3]	viscosity [mPa·s]
293.15 K	748.83 ± 1	1.481 ± 0.031
298.15 K	745.23 ± 1	1.355 ± 0.029
303.15 K	741.6 ± 1	1.244 ± 0.026
308.15 K	737.97 ± 1	1.151 ± 0.024
313.15 K	734.33 ± 1	1.066 ± 0.023
318.15 K	730.68 ± 1	0.992 ± 0.021
323.15 K	727.01 ± 1	0.926 ± 0.02
328.15 K	723.35 ± 1	0.867 ± 0.018
333.15 K	719.67 ± 1	0.814 ± 0.017
338.15 K	715.98 ± 1	0.765 ± 0.016
343.15 K	712.28 ± 1	0.724 ± 0.015
